Consider 1 substance from paper PMC8359613, “An essential vesicular-trafficking phospholipase mediates neutral lipid synthesis and contributes to hemozoin formation in Plasmodium falciparum” (BMC Biology, 2021).

The target of the assay is T1, PfLPL1 (Plasmodium falciparum, UniProt Q8IK69).
T1 construct: gene PF3D7_1476700; full length 1-353, expressed from pETM-41 in E. coli BL21(DE3); Ni-NTA then amylose resin (implies His-MBP fusion)
T1 sequence (Q8IK69 1-353): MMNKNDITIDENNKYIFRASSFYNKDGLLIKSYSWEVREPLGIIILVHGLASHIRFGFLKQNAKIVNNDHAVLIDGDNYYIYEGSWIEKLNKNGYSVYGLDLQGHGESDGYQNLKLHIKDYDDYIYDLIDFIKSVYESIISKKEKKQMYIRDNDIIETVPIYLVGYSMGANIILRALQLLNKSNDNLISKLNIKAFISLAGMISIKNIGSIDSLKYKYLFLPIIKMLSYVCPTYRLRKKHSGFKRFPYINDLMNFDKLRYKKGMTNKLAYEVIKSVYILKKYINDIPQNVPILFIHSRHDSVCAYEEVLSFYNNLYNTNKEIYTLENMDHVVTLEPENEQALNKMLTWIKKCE
The assay is described as follows: coupled Amplex Red fluorescence assay (GPC phosphodiesterase, choline oxidase, HRP). In kind it is biochemical. The following applies: substrate 0-70 µM; Tris-HCl, CaCl2, pH 8.0; room temperature; acyl chain of LPC not stated; reaction mix lists 0.5 mM lecithin.

As usually defined, the Km is the concentration of substrate that gives half-maximal velocity. Regarding LPC, the Km was found to be 61.2 ± 5.9 µM.
